Measurements from patent publication US20220192985A1, “METHOD OF PRODUCTION OF A COMPOSITE OF YEAST-DERIVED BETA GLUCAN PARTICLE WITH INCORPORATED POORLY-WATER-SOLUBLE LOW-MOLECULAR-WEIGHT COMPOUND, PHARMACEUTICAL PREPARATION AND USE THEREOF” (VYSOKA SKOLA CHEMICKO-TECHNOLOGICKA V PRAZE, priority 2019, published 2022).

Experiments:
Type in all cases: physicochemical
[1] = Moisture (water content), moisture analysis balance; conditions: first measurement, 100° C. infrared drying
Description: (§1) The moisture (water content) of the samples was firstly measure using a moisture analysis balance (simple test, 100° C., 5 mg initial mass, infrared drying). […] The samples were then dried for 24 hours in the oven with very-slowly-moving fan at 30° C. Finally, a shear test (FIG. 15) was performed on the samples a Powder Rheometer FT4 (pre-sheared at 3 kPa consolidation and initial mass of 0.6-0.7 g).

[2] = Powder rheology shear test (FT4), Example 8; conditions: pre-sheared at 3 kPa; ATO/GP mass ratio 25%
Description: as §1

[3] = Powder rheology shear test (FT4), Comparative Example 9; conditions: pre-sheared at 3 kPa, mass ratio 10%
Description: Shear tests were performed on the samples a Powder Rheometer FT4 (pre-sheared at 3 kPa consolidation and initial mass of 0.6-0.7 g). The tests were carried out per duplicate under laboratory conditions (21.2±0.7° C. and 35.1±2.0% relative humidity).

[4] = Dissolution test of (IBU+ASA)/GP, crude IBU and crude ASA in 10 mM HCl (pH 2.0); conditions: 10 mM HCl pH 2.0, room temperature; compared with encapsulated drug
Description: Dissolution tests (FIG. 11) were performed for crude micronized ibuprofen, crude acetylsalicylic acid and for the produced (IBU+ASA)/GP composite particles, in powder form and using 10 mM HCl (pH 2.0) as dissolution medium. For that, 20.0 mg of crude drug (IBU or ASA) or 100.0 mg of (IBU+ASA)/GP composite, were added to 200 mL of continuously stirred dissolution medium (for a maximum concentration of 0.1 mg of drug per ml of medium). The mixtures were continuously stirred at 250 rpm and room temperature in a 250-mL beaker. At pre-defined time-points (ranging from 0 to 60 min), 500 μL of sample were collected, centrifuged and filtered (200-nm pore size filtration membrane), and the concentration was evaluated by high-performance liquid chromatography (HPLC) with UV detection (Agilent), coupled with C18 column (100 mm×4.6 mm, 5 μm) and mobile phase consisting of 0.01 M ammonium phosphate buffer (pH 2.0) and acetonitrile, in gradient according to the Table 2: […]

Row | moisture (water content) [1] [% wt.] | AIF (Angle of Internal Friction) [2] [°] | Cohesion [2] [kPa] | Cohesion ([3]; 21.2±0.7° C., 35.1±2.0% relative humidity) [kPa] | AIF (Angle of Internal Friction) [3] [°] | Category (flowability) [3] | FF (Flow Function) [3] | dissolution rate [4] | SMILES
1 | 2.5 | 45.3 | 0.879 | 0.81 ± 0.21 | 51.24 ± 0.82 | Cohesive | 2.43 ± 0.48 | – | CC(C)c1c(C(=O)Nc2ccccc2)c(-c2ccccc2)c(-c2ccc(F)cc2)n1CC[C@@H](O)C[C@@H](O)CC(=O)O [Crude ATO, atorvastatin]
2 | – | – | – | – | – | – | – | slower dissolution rates | CC(=O)Oc1ccccc1C(=O)O [crude ASA, acetylsalicylic acid]
3 | – | – | – | – | – | – | – | slower dissolution rates | CC(C)Cc1ccc(C(C)C(=O)O)cc1 (stereo not drawn) [crude IBU, ibuprofen]
